One block for each compound: values may come before it.
Experiments:
[1] = target: Insulin receptor-related protein (Homo sapiens) (UniProt P14616); experiment: Selectivity interaction (KinomeScan (DiscoverX)) EUB0000666a INSRR; details: at 10 µM
[2] = target: Phosphatidylinositol 4,5-bisphosphate 3-kinase catalytic subunit alpha isoform (Homo sapiens) (UniProt P42336); experiment: Selectivity interaction (Kinase panel (literature)) EUB0001199aCl PIK3CA; details: at 1 µM
[3] = target: T1, Serine/threonine-protein kinase BRSK1 (Homo sapiens) (UniProt Q8TDC3); experiment: Selectivity interaction (ProQinase) EUB0000171b BRSK1
T1 sequence (whole entry): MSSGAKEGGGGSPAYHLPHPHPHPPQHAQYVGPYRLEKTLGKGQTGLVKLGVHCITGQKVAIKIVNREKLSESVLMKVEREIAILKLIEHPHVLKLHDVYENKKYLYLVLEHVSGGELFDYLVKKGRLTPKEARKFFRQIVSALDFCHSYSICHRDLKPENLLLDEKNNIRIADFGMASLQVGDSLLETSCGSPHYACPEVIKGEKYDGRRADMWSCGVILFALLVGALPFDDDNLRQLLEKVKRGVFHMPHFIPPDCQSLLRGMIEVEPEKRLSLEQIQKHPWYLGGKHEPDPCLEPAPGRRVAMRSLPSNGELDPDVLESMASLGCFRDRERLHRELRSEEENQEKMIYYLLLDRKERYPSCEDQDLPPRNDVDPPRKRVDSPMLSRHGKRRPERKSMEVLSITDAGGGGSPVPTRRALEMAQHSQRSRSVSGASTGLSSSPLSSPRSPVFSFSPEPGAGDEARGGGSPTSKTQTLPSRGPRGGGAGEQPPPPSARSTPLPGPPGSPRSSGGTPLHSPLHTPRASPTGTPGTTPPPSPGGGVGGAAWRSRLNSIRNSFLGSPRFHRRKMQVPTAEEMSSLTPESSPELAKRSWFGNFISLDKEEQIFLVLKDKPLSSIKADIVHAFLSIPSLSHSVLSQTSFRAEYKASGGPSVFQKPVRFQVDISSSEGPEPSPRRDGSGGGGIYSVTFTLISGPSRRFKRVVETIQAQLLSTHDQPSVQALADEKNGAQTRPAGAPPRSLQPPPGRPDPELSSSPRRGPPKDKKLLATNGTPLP

[4] = target: T2, Ephrin type-B receptor 4 (Homo sapiens) (UniProt P54760); experiment: Selectivity interaction (KinomeScan (DiscoverX)) EUB0000045b EPHB4
T2 sequence (whole entry): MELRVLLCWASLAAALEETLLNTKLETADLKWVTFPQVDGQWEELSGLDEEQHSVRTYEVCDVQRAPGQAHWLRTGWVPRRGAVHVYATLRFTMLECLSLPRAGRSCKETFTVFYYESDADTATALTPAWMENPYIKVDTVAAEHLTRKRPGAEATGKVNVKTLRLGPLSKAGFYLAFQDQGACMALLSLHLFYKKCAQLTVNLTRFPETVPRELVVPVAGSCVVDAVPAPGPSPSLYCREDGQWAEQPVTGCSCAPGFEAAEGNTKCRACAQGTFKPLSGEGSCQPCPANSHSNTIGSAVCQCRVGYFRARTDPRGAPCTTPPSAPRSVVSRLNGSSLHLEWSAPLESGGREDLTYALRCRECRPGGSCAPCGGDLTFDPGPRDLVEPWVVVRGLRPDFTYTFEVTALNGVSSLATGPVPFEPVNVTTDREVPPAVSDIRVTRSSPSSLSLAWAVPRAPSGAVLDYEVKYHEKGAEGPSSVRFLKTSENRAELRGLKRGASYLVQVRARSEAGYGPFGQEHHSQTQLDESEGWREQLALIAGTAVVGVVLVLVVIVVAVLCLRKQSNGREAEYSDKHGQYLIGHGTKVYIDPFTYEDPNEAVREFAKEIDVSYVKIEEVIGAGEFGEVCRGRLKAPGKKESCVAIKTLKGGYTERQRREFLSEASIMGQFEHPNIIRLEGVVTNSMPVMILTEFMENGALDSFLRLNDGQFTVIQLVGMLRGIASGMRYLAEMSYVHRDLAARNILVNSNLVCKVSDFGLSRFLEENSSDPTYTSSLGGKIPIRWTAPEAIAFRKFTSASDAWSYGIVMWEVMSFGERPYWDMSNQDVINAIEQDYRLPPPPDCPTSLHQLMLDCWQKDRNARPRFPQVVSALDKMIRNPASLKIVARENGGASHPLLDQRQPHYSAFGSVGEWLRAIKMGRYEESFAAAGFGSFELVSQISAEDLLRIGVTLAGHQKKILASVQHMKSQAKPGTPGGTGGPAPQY

[5] = target: T3, Bone morphogenetic protein receptor type-2 (Homo sapiens) (UniProt Q13873); experiment: Selectivity interaction (KinomeScan (DiscoverX)) EUB0000229b BMPR2; details: at 10 µM
T3 sequence (whole entry): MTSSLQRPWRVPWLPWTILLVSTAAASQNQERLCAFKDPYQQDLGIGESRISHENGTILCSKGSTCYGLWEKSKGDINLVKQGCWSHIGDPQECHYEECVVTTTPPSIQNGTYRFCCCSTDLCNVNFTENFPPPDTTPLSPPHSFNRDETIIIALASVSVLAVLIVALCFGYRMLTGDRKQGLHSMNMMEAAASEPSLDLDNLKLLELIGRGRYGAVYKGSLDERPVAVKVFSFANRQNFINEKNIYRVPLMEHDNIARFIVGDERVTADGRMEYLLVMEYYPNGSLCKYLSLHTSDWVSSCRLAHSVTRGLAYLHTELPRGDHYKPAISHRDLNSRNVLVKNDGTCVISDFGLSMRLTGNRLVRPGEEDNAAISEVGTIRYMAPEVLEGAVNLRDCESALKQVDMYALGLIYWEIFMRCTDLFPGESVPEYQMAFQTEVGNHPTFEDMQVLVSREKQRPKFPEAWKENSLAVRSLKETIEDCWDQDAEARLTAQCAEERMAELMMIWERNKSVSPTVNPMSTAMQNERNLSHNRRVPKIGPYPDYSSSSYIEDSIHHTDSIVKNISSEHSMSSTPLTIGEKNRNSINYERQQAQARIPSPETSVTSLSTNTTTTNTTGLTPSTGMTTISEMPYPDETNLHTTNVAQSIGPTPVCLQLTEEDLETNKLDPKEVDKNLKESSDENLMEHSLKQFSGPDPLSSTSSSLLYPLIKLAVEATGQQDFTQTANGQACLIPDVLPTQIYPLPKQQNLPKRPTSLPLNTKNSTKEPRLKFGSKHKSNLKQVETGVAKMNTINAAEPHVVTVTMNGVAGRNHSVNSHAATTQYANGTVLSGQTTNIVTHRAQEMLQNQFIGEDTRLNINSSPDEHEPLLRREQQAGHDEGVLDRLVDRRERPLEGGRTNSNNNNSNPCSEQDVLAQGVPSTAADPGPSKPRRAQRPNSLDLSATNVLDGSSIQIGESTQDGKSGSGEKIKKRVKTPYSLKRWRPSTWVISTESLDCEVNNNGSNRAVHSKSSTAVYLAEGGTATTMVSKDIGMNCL

[6] = target: Bone morphogenetic protein receptor type-1B (Homo sapiens, UniProt O00238); experiment: Selectivity interaction (KinomeScan (DiscoverX)) EUB0001619a BMPR1B; details: at 1 µM
Bone morphogenetic protein receptor type-1B, sequence (O00238 whole entry): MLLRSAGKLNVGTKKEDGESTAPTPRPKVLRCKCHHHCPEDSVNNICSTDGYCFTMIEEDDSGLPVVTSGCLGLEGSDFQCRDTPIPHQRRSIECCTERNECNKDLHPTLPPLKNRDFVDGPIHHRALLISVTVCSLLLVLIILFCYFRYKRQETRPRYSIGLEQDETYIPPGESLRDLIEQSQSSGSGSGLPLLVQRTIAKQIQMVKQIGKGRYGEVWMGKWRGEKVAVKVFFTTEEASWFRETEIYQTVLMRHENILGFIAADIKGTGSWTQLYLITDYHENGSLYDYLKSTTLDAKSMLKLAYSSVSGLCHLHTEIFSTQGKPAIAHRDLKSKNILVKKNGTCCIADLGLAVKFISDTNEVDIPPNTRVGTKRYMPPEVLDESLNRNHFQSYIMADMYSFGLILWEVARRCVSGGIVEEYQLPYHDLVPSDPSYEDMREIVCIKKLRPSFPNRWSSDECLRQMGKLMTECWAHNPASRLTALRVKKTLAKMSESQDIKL

Phosphatidylinositol 4,5-bisphosphate 3-kinase catalytic subunit alpha isoform (Homo sapiens), sequence (P42336 whole entry, canonical isoform): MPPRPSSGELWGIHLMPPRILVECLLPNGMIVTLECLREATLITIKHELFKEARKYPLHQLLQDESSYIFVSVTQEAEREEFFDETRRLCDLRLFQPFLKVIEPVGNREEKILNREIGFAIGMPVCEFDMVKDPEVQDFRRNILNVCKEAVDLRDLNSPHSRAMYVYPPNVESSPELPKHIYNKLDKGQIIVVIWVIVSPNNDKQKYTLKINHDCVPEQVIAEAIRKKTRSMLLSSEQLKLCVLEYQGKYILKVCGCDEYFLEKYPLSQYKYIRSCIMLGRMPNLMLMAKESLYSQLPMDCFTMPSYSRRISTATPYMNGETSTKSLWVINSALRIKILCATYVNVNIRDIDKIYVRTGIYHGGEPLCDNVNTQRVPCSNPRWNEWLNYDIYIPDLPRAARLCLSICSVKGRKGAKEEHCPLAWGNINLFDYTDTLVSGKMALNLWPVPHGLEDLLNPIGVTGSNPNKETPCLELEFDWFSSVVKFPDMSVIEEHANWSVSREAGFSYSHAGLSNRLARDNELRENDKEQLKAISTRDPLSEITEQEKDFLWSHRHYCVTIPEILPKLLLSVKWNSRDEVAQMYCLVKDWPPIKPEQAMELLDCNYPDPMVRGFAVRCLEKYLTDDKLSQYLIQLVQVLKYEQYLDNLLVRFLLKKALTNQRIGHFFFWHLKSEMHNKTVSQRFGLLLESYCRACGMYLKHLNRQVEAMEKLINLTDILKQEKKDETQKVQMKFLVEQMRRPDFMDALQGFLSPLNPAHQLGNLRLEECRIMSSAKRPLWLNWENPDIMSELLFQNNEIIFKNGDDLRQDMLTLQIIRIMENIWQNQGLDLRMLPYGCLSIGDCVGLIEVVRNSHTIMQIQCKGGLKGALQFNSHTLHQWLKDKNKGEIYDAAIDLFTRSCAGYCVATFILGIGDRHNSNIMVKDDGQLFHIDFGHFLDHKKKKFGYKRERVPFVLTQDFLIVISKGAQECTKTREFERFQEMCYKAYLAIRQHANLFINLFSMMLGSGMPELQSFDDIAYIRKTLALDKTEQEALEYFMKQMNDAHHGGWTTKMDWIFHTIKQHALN
Insulin receptor-related protein (Homo sapiens), sequence (P14616 27-742 limits assumed): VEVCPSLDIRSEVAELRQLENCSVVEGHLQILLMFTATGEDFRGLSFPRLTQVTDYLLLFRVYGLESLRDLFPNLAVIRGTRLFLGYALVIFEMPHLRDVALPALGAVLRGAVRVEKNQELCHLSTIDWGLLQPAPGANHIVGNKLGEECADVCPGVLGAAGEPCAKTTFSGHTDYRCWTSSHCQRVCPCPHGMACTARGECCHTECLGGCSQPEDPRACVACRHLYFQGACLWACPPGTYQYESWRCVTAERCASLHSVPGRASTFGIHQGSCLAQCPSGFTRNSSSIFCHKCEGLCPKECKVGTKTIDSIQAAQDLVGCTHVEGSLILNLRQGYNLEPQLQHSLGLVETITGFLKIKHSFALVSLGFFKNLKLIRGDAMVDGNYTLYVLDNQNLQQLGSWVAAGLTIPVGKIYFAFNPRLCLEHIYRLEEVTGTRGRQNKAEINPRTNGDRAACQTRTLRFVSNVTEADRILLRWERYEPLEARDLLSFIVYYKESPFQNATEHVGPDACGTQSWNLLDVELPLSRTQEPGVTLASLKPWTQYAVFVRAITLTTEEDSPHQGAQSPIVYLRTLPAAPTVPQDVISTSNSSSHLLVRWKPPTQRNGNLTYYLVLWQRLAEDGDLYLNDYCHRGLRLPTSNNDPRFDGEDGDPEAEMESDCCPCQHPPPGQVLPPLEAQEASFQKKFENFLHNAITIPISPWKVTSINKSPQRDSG
Insulin receptor-related protein (Homo sapiens), sequence (P14616 747-1297 limits assumed): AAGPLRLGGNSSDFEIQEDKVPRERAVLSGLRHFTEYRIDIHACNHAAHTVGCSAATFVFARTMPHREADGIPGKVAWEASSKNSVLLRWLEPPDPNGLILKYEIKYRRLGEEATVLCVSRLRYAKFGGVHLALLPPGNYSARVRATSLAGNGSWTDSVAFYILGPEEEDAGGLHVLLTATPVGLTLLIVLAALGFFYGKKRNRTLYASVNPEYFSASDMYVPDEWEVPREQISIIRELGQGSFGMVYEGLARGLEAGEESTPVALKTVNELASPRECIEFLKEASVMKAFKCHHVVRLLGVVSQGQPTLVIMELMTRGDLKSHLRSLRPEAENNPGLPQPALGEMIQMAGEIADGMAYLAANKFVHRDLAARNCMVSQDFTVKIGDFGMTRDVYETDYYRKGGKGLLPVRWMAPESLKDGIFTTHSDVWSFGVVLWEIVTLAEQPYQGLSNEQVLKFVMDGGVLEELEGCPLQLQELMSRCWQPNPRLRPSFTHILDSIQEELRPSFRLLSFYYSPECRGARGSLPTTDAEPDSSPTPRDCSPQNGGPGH

SMILES: O=C(NOC[C@H](O)CO)c1ccc(F)c(F)c1Nc1ccc(I)cc1F
- % of control [1]: 81%

- % of inhibition [2]: 1%
SMILES: CN1Cc2nccc(-c3cn(C)nc3-c3ccc(F)cc3)c2C1=O

- % of control ([3]; at 1 µM): 107%
- % of control ([3]; at 5 µM): 95%
SMILES: C=CC(=O)Nc1cccc(C(=O)Nc2ccc(Nc3cc(-c4[nH]c(SC)nc4C)ccn3)cc2)c1

SMILES: C=CC(=O)Nc1cc(-n2c(=O)ccc3cnc4ccc(-c5ccc(NS(C)(=O)=O)cc5)cc4c32)ccc1C
- % of control ([4]; at 1 µM): 100%
- % of control ([4]; at 10 µM): 100%

SMILES: COc1cc(N(C)c2ccnc3ccc(C(F)(F)F)cc23)cc(OC)c1OC
- % binding [5]: 94%

SMILES: N#Cc1cccc(-c2c[nH]c3ncnc(N4CCOCC4)c23)c1
- % of control [6]: 31%

Reference: ChEMBL document CHEMBL5465560, “Selectivity Literature for EUbOPEN Chemogenomic Library” (2024)
